Test results: patent publication US6855730B2, “3-methylidenyl-2-indolinone modulators of protein kinase” (Sugen, Inc., priority 1998, dated 2005)
pIC50: −log10 of the molar value. Where a name gives a salt, the structure may show the parent alone.

Target: T1, PDGFR-β (Homo sapiens, UniProt P09619)
T1 construct: host or cells: NIH 3T3
Experiment: Biochemical PDGFR assay (ELISA, PDGFR-β expressing NIH 3T3 cell lysate)
Conditions: read-out: bio PDGF IC50
How it was run: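 Phosphorylation was read by ELISA (anti-phosphotyrosine serum, peroxidase secondary, ABTS at 410 nm) after a 30 min room-temperature reaction with 20 μM ATP, EDTA-stopped. Kinase was lysate-derived PDGFR-β (NIH 3T3) immobilised via 28D4C10 antibody, compound added 30 min before ATP.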

T1 sequence (P09619 33-1106): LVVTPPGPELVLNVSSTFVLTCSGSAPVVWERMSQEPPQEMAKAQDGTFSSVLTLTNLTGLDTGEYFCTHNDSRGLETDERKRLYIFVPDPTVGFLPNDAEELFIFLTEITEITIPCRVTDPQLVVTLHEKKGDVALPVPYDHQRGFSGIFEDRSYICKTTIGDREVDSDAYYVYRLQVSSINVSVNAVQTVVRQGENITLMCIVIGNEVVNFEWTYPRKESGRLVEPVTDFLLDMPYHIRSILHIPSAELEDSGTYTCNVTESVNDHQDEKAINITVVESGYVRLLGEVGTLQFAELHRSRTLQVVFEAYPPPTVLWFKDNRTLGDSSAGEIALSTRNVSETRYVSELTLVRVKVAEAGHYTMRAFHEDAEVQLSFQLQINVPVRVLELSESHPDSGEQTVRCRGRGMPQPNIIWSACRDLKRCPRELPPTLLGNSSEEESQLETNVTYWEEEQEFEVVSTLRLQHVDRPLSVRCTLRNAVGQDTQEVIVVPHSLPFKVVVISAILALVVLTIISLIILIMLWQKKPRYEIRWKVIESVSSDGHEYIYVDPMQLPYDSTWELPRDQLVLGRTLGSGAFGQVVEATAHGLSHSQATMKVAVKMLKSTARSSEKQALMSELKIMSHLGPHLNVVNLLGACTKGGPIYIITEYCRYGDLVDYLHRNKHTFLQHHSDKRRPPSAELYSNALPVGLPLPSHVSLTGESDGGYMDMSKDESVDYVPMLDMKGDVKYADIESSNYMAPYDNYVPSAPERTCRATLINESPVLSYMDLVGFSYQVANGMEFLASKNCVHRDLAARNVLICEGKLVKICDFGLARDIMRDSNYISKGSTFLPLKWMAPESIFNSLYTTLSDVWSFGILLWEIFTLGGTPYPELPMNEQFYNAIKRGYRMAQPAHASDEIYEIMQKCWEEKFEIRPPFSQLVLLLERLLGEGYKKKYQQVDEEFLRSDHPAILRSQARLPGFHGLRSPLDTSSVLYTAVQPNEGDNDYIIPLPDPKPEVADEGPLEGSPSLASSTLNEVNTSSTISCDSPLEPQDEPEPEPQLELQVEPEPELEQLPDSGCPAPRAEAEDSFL

| Compound | pIC50 |
| --- | --- |
| COc1cccc(-c2cc(OC)c(OC)cc2/C=C2/C(=O)Nc3ccc(Cl)cc32)c1 [Example 61, 5-Chloro-3-(4,5-3′-Trimethoxybiphenyl-2-ylmethylene)-1,3-dihydroindol-2-one] | < 4.00 |
| COc1cc(/C=C2/C(=O)Nc3ccccc32)c(-c2ccc3ccccc3c2)cc1OC [Example 62, 3-(4,5-Dimethoxy-2-naphthalen-2-ylbenzylidene)-1,3-dihydroindol-2-one] | < 4.00 |
| COc1ccc2c(c1)NC(=O)/C2=C/c1ccc(OC)c(-c2ccsc2)c1 [Example 64, 6-Methoxy-3-(4-methoxy-3-thiophen-3-ylbenzylidene)-1,3-dihydroindol-2-one] | < 4.00 |
| Cc1c(/C=C2\C(=O)Nc3ccc(C(=O)O)cc32)[nH]c2ccccc12 [Example 156, 3-(3-Methyl-1H-indol-2-ylmethylene)-2-oxo-2,3-dihydro-1H-indole-5-carboxylic acid (piperidine salt)] | 5.08 |
| O=C1Nc2ccc(Br)cc2/C1=C/c1cc2ccccc2[nH]1 [Example 165, 5-Bromo-3-(1H-indol-2-ylmethylene)-1,3-dihydro-indol-2-one] | 4.31 |
| Cc1cccc2c1/C(=C/c1cc3ccccc3[nH]1)C(=O)N2 [Example 166, 3-(1H-indol-2-ylmethylene)-4-methyl-1,3-dihydro-indol-2-one] | < 4.00 |

The next compounds have a higher pIC50 than those just listed; values first:

| pIC50 | Compound |
| --- | --- |
| > 6.11 | Cc1cc(CCC(=O)O)c(/C=C2\C(=O)Nc3cc(-c4ccc(F)cc4)ccc32)[nH]1 [Example 107, 3-{2-[6-(4-Fluorophenyl)-2-oxo-1,2-dihydroindol-3-ylidenemethyl]-5-methyl-1H-pyrrol-3-yl}propionic acid] |
| 5.53 | CCOC(=O)c1c(C)[nH]c(/C=C2\C(=O)Nc3cc(-c4ccc(F)cc4)ccc32)c1CCC(=O)O [Example 108, 4-(2-Carboxyethyl)-5-[6-(4-fluorophenyl)-2-oxo-1,2-dihydro-indol-3-ylidenemethyl]-2-methyl-1H-pyrrole-3-carboxylic acid ethyl ester] |
| 5.55 | COc1ccccc1-c1ccc2c(c1)NC(=O)/C2=C\c1[nH]c(C)cc1CCC(=O)O [Example 109, 3-{2-[6-(2-Methoxyphenyl)-2-oxo-1,2-dihydroindol-3-ylidenemethyl]-5-methyl-1H-pyrrol-3-yl}-propionic acid] |
| 5.50 | CCOC(=O)c1c(C)[nH]c(/C=C2\C(=O)Nc3cc(-c4ccccc4OC)ccc32)c1CCC(=O)O [Example 110, 4-(2-Carboxyethyl)-5-[6-(2-methoxyphenyl)-2-oxo-1,2-dihydro-indol-3-ylidenemethyl]-2-methyl-1H-pyrrol-3-yl-carboxylic acid ethyl ester] |
| 8.00 | Cc1cc(CCC(=O)O)c(/C=C2\C(=O)Nc3ccc(Cl)cc32)[nH]1 [Example 111, 3-[2-(5-Chloro-2-oxo-1,2-dihydroindol-3-ylidenemethyl)-5-methyl-1H-pyrrol-3-yl]propionic acid] |
